ChEMBL document CHEMBL1127379, “Three-dimensional molecular shape analysis-quantitative structure-activity relationship of a series of cholecystokinin-A receptor antagonists” (J Med Chem, 1994)

molecular target: T1, Cholecystokinin receptor type A (Rattus norvegicus, UniProt P30551); assay: Binding affinity against cholecystokinin type A receptor of rat pancreas
T1 sequence (P30551 whole entry): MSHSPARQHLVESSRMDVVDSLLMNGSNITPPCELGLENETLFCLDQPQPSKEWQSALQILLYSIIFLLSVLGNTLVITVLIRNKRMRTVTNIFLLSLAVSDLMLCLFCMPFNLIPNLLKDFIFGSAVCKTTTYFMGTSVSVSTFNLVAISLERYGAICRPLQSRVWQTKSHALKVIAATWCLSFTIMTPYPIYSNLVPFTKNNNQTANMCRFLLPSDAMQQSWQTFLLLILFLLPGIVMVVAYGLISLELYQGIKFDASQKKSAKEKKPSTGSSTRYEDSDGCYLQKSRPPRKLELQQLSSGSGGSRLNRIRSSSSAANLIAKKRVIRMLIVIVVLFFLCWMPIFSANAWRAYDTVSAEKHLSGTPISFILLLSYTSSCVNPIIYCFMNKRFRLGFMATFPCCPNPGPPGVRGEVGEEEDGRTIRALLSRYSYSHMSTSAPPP

First: CN1C(=O)[C@@H](NC(=O)c2ccc(Cl)cc2)N=C(c2ccccc2F)c2ccccc21
Second: CN1C(=O)C(NC(=O)c2ccc(Br)cc2)N=C(c2ccccc2F)c2ccccc21 (stereo not drawn)
The IC50 of the first is 3.6-fold higher: 2.88 nM for the first, 0.794 nM for the second.

Compared with `CN1C(=O)[C@@H](NC(=O)c2ccc(Br)cc2)N=C(c2ccccc2)c2ccccc21`, `CN1C(=O)C(NC(=O)c2ccc(C(F)(F)F)cc2)N=C(c2ccccc2)c2ccccc21` (stereo not drawn) is 1.9-fold lower in IC50: 2.51 nM for the first, 1.29 nM for the second.

Compared with `O=C(NC1N=C(c2ccccc2)c2ccccc2NC1=O)c1cc2ccccc2[nH]1` (stereo not drawn), `O=C(NC1N=C(c2ccccc2)c2ccccc2NC1=O)c1ccc(O)cc1` (stereo not drawn) is 390-fold higher in IC50: 4.57 nM for the first, 1780 nM for the second.

First: O=C(NC1N=C(c2ccccc2F)c2ccccc2NC1=O)c1cc2cc(Cl)ccc2[nH]1 (stereo not drawn)
Second: CC1C(C(=O)NC2N=C(c3ccccc3F)c3ccccc3NC2=O)=Cc2ccccc21 (stereo not drawn)
The IC50 of the first is 4.6-fold higher: 100 nM for the first, 21.9 nM for the second.

Going from `CN1C(=O)C(NC(=O)c2ccc(C#N)cc2)N=C(c2ccccc2F)c2ccccc21` (stereo not drawn) to `CN1C(=O)C(NC(=O)c2ccc(I)cc2)N=C(c2ccccc2F)c2ccccc21` (stereo not drawn), the IC50 falls from 42.7 nM to 0.794 nM (54-fold).

Going from `O=C(CNc1ccccc1)NC1N=C(c2ccccc2F)c2ccccc2NC1=O` (stereo not drawn) to `CN1C(=O)C(NC(=O)c2ccccc2I)N=C(c2ccccc2F)c2ccccc21` (stereo not drawn), the IC50 rises from 89.1 nM to 794 nM (8.9-fold). The first is the more potent here.

`CN1C(=O)C(NC(=O)c2cccc(Br)c2)N=C(c2ccccc2F)c2ccccc21` (stereo not drawn) gave an IC50 of 3.47 nM.
